This note sets out measurements from ChEMBL document CHEMBL1141220, “A new class of HIV-1 protease inhibitors containing a tertiary alcohol in the transition-state mimicking scaffold” (J Med Chem, 2005).

For data set [1], the system named is MT4. Nature of the data set: Antiviral activity against HIV1 infected MT4 cells by colorimetric XTT assay. It counts as functional, cell-based. The settings on record: Homo sapiens. On the technique in general: Tetrazolium assays rely on reduction of a dye to a coloured formazan, in cell work by metabolically active cells.
The target of data set [2] is Human immunodeficiency virus type 1 protease (Human immunodeficiency virus 1, UniProt Q72874). In words: Inhibitory activity against HIV1 protease expressed in Escherichia coli in a fluorometric assay.
For data set [3], the system named is MT4. Nature of the data set: Antiviral activity against mutant HIV1 (V32I, M46I, V82A) infected MT4 cells by colorimetric XTT assay. It counts as functional, cell-based.
The nature of data set [4]: Caco-2 cell membrane permeability. It counts as ADME, cell-based. Particulars: human. In general terms: Passage across Caco-2 layers is used to estimate intestinal permeability.
Data set [5] has as its system MT4. In words: Antiviral activity against mutant HIV1 (V32I, M46I, A71V, V82A) infected MT4 cells by colorimetric XTT assay. It counts as functional, cell-based.
Data set [6] is described as follows: Intrinsic clearance (CL) in human liver microsomes at 2 uM. The class given is ADME, Microsome. (Liver microsomes are vesicles of endoplasmic reticulum, rich in cytochrome P450 enzymes.)

With `CC(C)(C)[C@H](NC(=O)NCc1ccccc1)C(=O)NN(Cc1ccccc1)C[C@@](O)(Cc1ccccc1)C(=O)N[C@H]1c2ccccc2C[C@H]1O`, the EC50 (commonly the concentration that produces a half-maximal response) with MT4 [1] was above 10000 nM. Further, the Ki (commonly a measure of affinity in units of concentration, obtained from inhibition or displacement) in data set [2] turned out to be 22 nM.

Turning to `COC(=O)N[C@H](C(=O)NN(Cc1ccc(Br)cc1)C[C@@](O)(Cc1ccccc1)C(=O)N[C@H]1c2ccccc2C[C@H]1O)C(C)(C)C`, the EC50 with MT4 [3] was 900 nM; with MT4 [1], 1100 nM; in the data set with MT4 [5], 800 nM. Moreover, in data set [4], the apparent permeability (Papp) (commonly a coefficient for how fast a substance crosses the barrier) was 42 ×10⁻⁶ cm/s.

In the case of `CC(C)(C)[C@H](NC(=O)OCc1ccccc1)C(=O)NN(Cc1ccccc1)C[C@@](O)(Cc1ccccc1)C(=O)N[C@H]1c2ccccc2C[C@H]1O`, the concentration giving a half-maximal response (EC50) with MT4 [1] was above 10000 nM. The affinity in data set [2] corresponds to a Ki of 18 nM.

The compound `COC(=O)N[C@H](C(=O)NN(Cc1ccccc1)C[C@@](O)(Cc1ccccc1)C(=O)N[C@H]1c2ccccc2C[C@H]1O)C(C)C` showed an EC50 in the data set on MT4 [1] of 4800 nM. In addition, the Ki in data set [2] is 9 nM.

The compound `CC(C)(C)[C@H](NS(C)(=O)=O)C(=O)NN(Cc1ccccc1)C[C@@](O)(Cc1ccccc1)C(=O)N[C@H]1c2ccccc2C[C@H]1O` had an EC50 in the data set with MT4 [1] above 10000 nM. Besides, in data set [2], the Ki is 63 nM.

Take `COC(=O)N[C@H](C(=O)NN(Cc1ccccc1)C[C@](O)(Cc1ccccc1)C(=O)N[C@H]1c2ccccc2C[C@H]1O)C(C)(C)C`: the EC50 with MT4 [1] was above 10000 nM.

On to `CC(C)[C@H](NC(=O)OCc1ccccc1)C(=O)NN(Cc1ccc(Br)cc1)C[C@@](O)(Cc1ccccc1)C(=O)N[C@H]1c2ccccc2C[C@H]1O`, for which the concentration for a half-maximal effect (EC50) in the data set on MT4 [1] was above 10000 nM. This compound also displayed a Ki in data set [2] of 17 nM.

For `COC(=O)N[C@H](C(=O)NN(Cc1ccccc1)C[C@@](O)(Cc1ccccc1)C(=O)N[C@H]1c2ccccc2C[C@H]1O)C(C)(C)C`, the half-maximal effective concentration (EC50) in the data set on MT4 [3] was found to be 2000 nM; with MT4 [1], 1900 nM; with MT4 [5], 1600 nM. The microsomal CLint (commonly a measure of how fast metabolising enzymes remove a compound, apart from limits set by blood flow) at 2 µM in data set [6] is 527 µL/min/mg. Besides, the apparent permeability coefficient (Papp) in data set [4] stood at 35 ×10⁻⁶ cm/s. The Ki in data set [2] amounted to 6 nM.

Compound `CC(C)[C@H](NC(=O)OCc1ccccc1)C(=O)NN(Cc1ccccc1)C[C@](O)(Cc1ccccc1)C(=O)N[C@H]1c2ccccc2C[C@H]1O` yielded a 50% effective concentration (EC50) in the data set on MT4 [1] above 10000 nM. The compound further displayed an inhibition constant (Ki) in data set [2] of 870 nM.

For the compound `CC(C)[C@H](NC(=O)OCc1ccccc1)C(=O)NN(Cc1ccccc1)C[C@@](O)(Cc1ccccc1)C(=O)N[C@H]1c2ccccc2C[C@H]1O`, in the data set with MT4 [1], the EC50 is above 10000 nM. In addition, the Ki in data set [2] is 23 nM.
